Each structure is given as a SMILES string. Where a name gives a salt, the structure may show the parent alone.

Compound `Clc1ccc2c(c1)N=C(N1CCN[C@@H](Cc3ccccc3)C1)c1ccccc1N2` [Example 585, 11-(3-(S)-Benzyl-piperazin-1-yl)-8-chloro-5H-dibenzo[b,e][1,4]diazepine] gave a melting point of 79 to 92 °C.
With `COc1ccccc1CC[C@H]1CN(C2=Nc3ccccc3Nc3sc(C)cc32)CCN1` (as salt: hydrochloride) [Example 181, 10-((S)-3-(2-(2-Methoxy-phenyl)-ethyl)-piperazin-1-yl)-2-methyl-4H-3-thia-4,9-diaza-benzo[f]azulene dihydrochloride], the melting point was 202 °C (dec.).
Turning to `Cc1nc2c(s1)Nc1ccccc1N=C2N1CCN[C@@H](Cc2ccccc2)C1` [Example 462], the melting point was 250 to 252 °C.
On to `Cc1nc2c(s1)Nc1ccccc1N=C2N1CCN(C)[C@@H](CCc2ccc(F)cc2)C1` (as salt: hydrochloride), for which the melting point came to 230 °C.
The result for `Cc1ccc2c(c1)C(N1CCN(C)CC1)=Nc1ccccc1N2` [Example 579] reads 170 to 177 °C (dec.); that for `Cc1cc2c(s1)Nc1ccccc1N=C2N1CCN[C@@H](CCc2ccccc2F)C1` (as salt: hydrochloride) [Example 178, 10-((S)-3-(2-(2-Fluoro-phenyl)-ethyl)-piperazin-1-yl)-2-methyl-4H-3-thia-4,9-diaza-benzo[f]azulene dihydrochloride], 209 °C (dec.); that for `Cc1cc2c(s1)Nc1ccccc1N=C2N1CCN(C)[C@@H](CCc2ccccc2Cl)C1` [Example 392, 10-((S)-3-[2-(2-Chloro-phenyl)-ethyl]-4-methyl-piperazin-1-yl)-2-methyl-4H-3-thia-4,9-diaza-benzo[f]azulene], 72 °C (dec.).
For the compound `Cc1ccc2c(c1)C(N1CCN[C@@H](CCc3ccccc3)C1)=Nc1ccccc1N2` [Example 580, 2-Methyl-11-[(S)-3-phenethyl-piperazin-1-yl]-5H-dibenzo[b,e][1,4]diazepine], the melting point was 67 °C (dec.).
Turning to `Cc1ccc2c(c1)Nc1ccccc1N=C2N1CCN[C@@H](CCc2ccccc2)C1` [Example 575, 3-Methyl-11-[(S)-3-phenethyl-piperazin-1-yl]-5H-dibenzo[b,e][1,4]diazepine], the melting point lay within 64 to 80 °C.
Take `Cc1cc2c(s1)Nc1ccccc1N=C2N1CCN(C)[C@@H](CCc2ccncc2)C1` (as salt: hydrochloride) (hydrate or solvate): the melting point is 214 to 217 °C (dec.).
Consider `Cc1cc2c(s1)Nc1ccccc1N=C2N1CCN[C@@H](CCc2cccc(Cl)c2)C1` [Example 387, 10-((S)-3-[2-(3-Chloro-phenyl)-ethyl]-piperazin-1-yl)-2-methyl-4H-3-thia-4,9-diaza-benzo[f]azulene], for which the melting point was 68 to 74 °C (dec.).
In turn, `CC(C)c1nc2c(s1)Nc1ccccc1N=C2N1CCN(C)[C@@H](Cc2ccccc2)C1` (as salt: hydrochloride) [Example 477, (S)-10-(3-Benzyl-4-methyl-piperazin-1-yl)-2-isopropyl-4H-3-thia-1,4,9-triaza-benzo[f]azulene dihydrochloride] registered a melting point of 235 °C.
Regarding `Cc1cc2c(s1)Nc1ccccc1N=C2N1CCN[C@@H](CCc2cccnc2)C1` (as salt: hydrochloride) (hydrate or solvate), the melting point was 226 to 229 °C (dec.).
The result for `Cc1ccc2c(c1)C(N1CCN(C)[C@@H](CCc3ccccc3)C1)=Nc1ccccc1N2` [Example 581, 2-Methyl-11-[4-methyl-(S)-3-phenethyl-piperazin-1-yl]-5H-dibenzo[b,e][1,4]diazepine] reads 65 °C (dec.).
Take `COc1ccccc1C[C@H]1CN(C2=Nc3ccccc3Nc3sc(C)nc32)CCN1C` (as salt: hydrochloride): the melting point is 185 °C.
The value for `Cc1cc2c(s1)Nc1ccccc1N=C2N1CCN(C)[C@@H](CCc2cccc(F)c2)C1` (as salt: hydrochloride) [Example 183, 10-((S)-3-(2-(3-Fluoro-phenyl)-ethyl)-4-methyl-piperazin-1-yl)-2-methyl-4H-3-thia-4,9-diaza-benzo[f]azulene dihydrochloride] was 225 °C (dec.); that for `CC(C)c1nc2c(s1)Nc1ccccc1N=C2N1CCN(C)[C@@H](CCc2ccccc2)C1` (as salt: hydrochloride) was 210 °C; that for `Cc1ccc2c(c1)Nc1ccccc1N=C2N1CCN(C)CC1` [Example 574, 3-Methyl-11-(4-methyl-piperazin-1-yl)-3-methyl-5H-dibenzo[b,e][1,4]diazepine] was 84 °C (dec.).
The value for `COc1ccccc1CC[C@H]1CN(C2=Nc3ccccc3Nc3sc(C)cc32)CCN1C` (as salt: hydrochloride) [Example 187, 10-((S)-3-(2-(2-Methoxy-phenyl)-ethyl)-4-methyl-piperazin-1-yl)-2-methyl-4H-3-thia-4,9-diaza-benzo[f]azulene dihydrochloride] was 213 °C (dec.); that for `Cc1ccc2c(c1)Nc1ccccc1N=C2N1CCN[C@@H](CCc2cccc(F)c2)C1` [Example 577, 11-{(S)-3-[2-(3-Fluoro-phenyl)-ethyl]-piperazin-1-yl}-3-methyl-5H-dibenzo[b,e][1,4]diazepine] was 81 °C (dec.); that for `COc1ccc(CC[C@H]2CN(C3=Nc4ccccc4Nc4sc(C(C)C)nc43)CCN2C)cc1` (as salt: hydrochloride) was 190 °C.
Regarding `COc1ccc(CC[C@H]2CN(C3=Nc4ccccc4Nc4sc(C)cc43)CCN2)cc1` (as salt: hydrochloride) [Example 179, 10-((S)-3-(2-(4-methoxy-phenyl)-ethyl)-piperazin-1-yl)-2-methyl-4H-3-thia-4,9-diaza-benzo[f]azulene dihydrochloride], the melting point is 213 °C (dec.).
Consider `Cc1cc2c(s1)Nc1ccccc1N=C2N1CCN(C)[C@@H](CCc2cccc(Cl)c2)C1` [Example 391, 10-((S)-3-[2-(3-Chloro-phenyl)-ethyl]-4-methyl-piperazin-1-yl)-2-methyl-4H-3-thia-4,9-diaza-benzo[f]azulene], for which the melting point was 69 °C (dec.).
For `Cc1cc2c(s1)Nc1ccccc1N=C2N1CCN(C)[C@@H](CCc2ccc(F)cc2)C1` (as salt: hydrochloride) [Example 182, 10-((S)-3-(2-(4-Fluoro-phenyl)-ethyl]-4-methyl-piperazin-1-yl)-2-methyl-4H-3-thia-4,9-diaza-benzo[f]azulene dihydrochloride], the melting point was 253 °C (dec.).
The result for `CN1CCN(C2=Nc3ccccc3Nc3sc(C(C)(C)C)cc32)C[C@@H]1CCc1ccccc1` (as salt: hydrochloride) reads 230 °C; that for `COc1cccc(CC[C@H]2CN(C3=Nc4ccccc4Nc4sc(C)cc43)CCN2)c1` (as salt: hydrochloride) [Example 180, 10-((S)-3-(2-(3-Methoxy-phenyl)-ethyl)-piperazin-1-yl)-2-methyl-4H-3-thia-4,9-diaza-benzo[f]azulene dihydrochloride], 201 °C (dec.).
On to `Cc1ccc2c(c1)Nc1ccccc1N=C2N1CCN(C)[C@@H](CCc2ccccc2)C1` [Example 576, 3-Methyl-11-[4-methyl-(S)-3-phenethyl-piperazin-1-yl]-5H-dibenzo[b,e][1,4]diazepine], for which the melting point was 65 °C (dec.).
Take `Cc1cc2c(s1)Nc1ccccc1N=C2N1CCN[C@@H](CCc2ccc(F)cc2)C1` (as salt: hydrochloride) [Example 176, 10-((S)-3-(2-(4-Fluorophenyl)-ethyl)-piperazin-1-yl)-2-methyl-4H-3-thia-4,9-diaza-benzo[f]azulene dihydrochloride]: the melting point is 236 °C (dec.).
`Cc1cc2c(s1)Nc1ccccc1N=C2N1CCN[C@@H](CCc2ccccn2)C1` (as salt: hydrochloride) [Example 132]: the melting point is 220 to 224 °C (dec.).
The value for `COc1ccc(CC[C@H]2CN(C3=Nc4ccccc4Nc4sc(C)cc43)CCN2C)cc1` (as salt: hydrochloride) [Example 185, 10-((S)-3-(2-(4-Methoxy-phenyl)-ethyl)-4-methyl-piperazin-1-yl)-2-methyl-4H-3-thia-4,9-diaza-benzo[f]azulene dihydrochloride] was 239 °C (dec.); that for `Cc1cc2c(s1)Nc1ccccc1N=C2N1CCN(C)[C@@H](CCc2ccccc2F)C1` (as salt: hydrochloride) [Example 184, 10-((S)-3-(2-(2-Fluoro-phenyl)-ethyl)-4-methyl-piperazin-1-yl)-2-methyl-4H-3-thia-4,9-diaza-benzo[f]azulene dihydrochloride] was 203 °C (dec.); that for `Cc1cc2c(s1)Nc1ccccc1N=C2N1CCN[C@@H](CCc2ccc(C(F)(F)F)cc2)C1` [Example 393, 10-((S)-3-[2-(4-Trifluoromethyl-phenyl)-ethyl]-piperazin-1-yl)-2-methyl-4H-3-thia-4,9-diaza-benzo[f]azulene] was 78 °C (dec.).
On to `Cc1cc2c(s1)Nc1ccccc1N=C2N1CCN[C@@H](CCc2ccc(F)cc2F)C1` [Example 399, 10-((S)-3-[2-(2,4-Difluoro-phenyl)-ethyl]-piperazin-1-yl)-2-methyl-4H-3-thia-4,9-diaza-benzo[f]azulene], for which the melting point was 69 °C (dec.).
Take `Cc1cc2c(s1)Nc1ccccc1N=C2N1CCN[C@@H](CCc2ccccc2C(F)(F)F)C1` [Example 394, 10-((S)-3-[2-(2-Trifluoromethyl-phenyl)-ethyl]-piperazin-1-yl)-2-methyl-4H-3-thia-4,9-diaza-benzo[f]azulene]: the melting point is 73 °C (dec.).
The result for `Cc1cc2c(s1)Nc1ccccc1N=C2N1CCN[C@@H](CCc2cccc(F)c2)C1` (as salt: hydrochloride) [Example 177, 10-((S)-3-(2-(3-Fluoro-phenyl)-ethyl)-piperazin-1-yl))-2-methyl-4H-3-thia-4,9-diaza-benzo[f]azulene dihydrochloride] reads 211 °C (dec.).
The result for `Cc1cc2c(s1)Nc1ccccc1N=C2N1CCN(C)[C@@H](CCc2ccc3ccccc3c2)C1` (as salt: hydrochloride) reads 209 °C (dec.).

What is called melting point is the temperature, or range, at which the solid turns liquid.

The values are drawn from patent US7214673B2, “Piperazine substituted aryl benzodiazepines and their use as dopamine receptor antagonists for the treatment of psychotic disorders” (Eli Lilly and Company, priority 2002, dated 2007).
